# Measured values reported in ChEMBL document CHEMBL1201861, “Genomics of Drug Sensitity in Cancer screening data, Wellcome Trust Sanger Institute”.
# Legend:
# RPMI 8402 = experiment: SANGER: Inhibition of human RPMI-8402 cell growth in a cell viability assay.; type: functional, cell-based
# LC-1F = experiment: cells; type: functional, cell-based; conditions: Homo sapiens;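 also: growth inhibition of human LC-1F cells, read out with a cell viability assay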
# Description: SANGER: Inhibition of human LC-1F cell growth in a cell viability assay.
# MeWo = experiment: cells; type: functional, cell-based; conditions: Homo sapiens;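 also: growth inhibition of MeWo cells, determined by a cell viability readout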
# Description: SANGER: Inhibition of human Mewo cell growth in a cell viability assay.
# COLO-678 = experiment: cells; type: functional, cell-based; conditions: Homo sapiens
# Description: SANGER: Inhibition of human COLO-678 cell growth in a cell viability assay.
# A2780 = experiment: cells; type: functional, cell-based; conditions: Homo sapiens;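 also: growth inhibition of A2780 cells, read out with a cell viability assay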
# Description: SANGER: Inhibition of human A2780 cell growth in a cell viability assay.
# TE-15 = experiment: cells; type: functional, cell-based; conditions: Homo sapiens;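 also: cell viability readout of growth inhibition in TE-15 cells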
# Description: SANGER: Inhibition of human TE-15 cell growth in a cell viability assay.
# RVH-421 = experiment: cells; type: functional, cell-based; conditions: Homo sapiens
# Description: SANGER: Inhibition of human RVH-421 cell growth in a cell viability assay.
# JEG-3 = experiment: cells; type: functional, cell-based; conditions: Homo sapiens;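 also: growth inhibition of human JEG-3 cells, read out with a cell viability assay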
# Description: SANGER: Inhibition of human JEG-3 cell growth in a cell viability assay.
# SiHa = experiment: cells; type: functional, cell-based; conditions: Homo sapiens;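 also: Viability-based readout of growth inhibition in SiHa cells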
# Description: SANGER: Inhibition of human SiHa cell growth in a cell viability assay.
# BC-3 = experiment: cells; type: functional, cell-based; conditions: Homo sapiens;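 also: cell viability assay measuring growth inhibition of human BC-3 cells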
# Description: SANGER: Inhibition of human BC-3 cell growth in a cell viability assay.
# SNU-C1 = experiment: cells; type: functional, cell-based; conditions: Homo sapiens;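 also: growth inhibition of SNU-C1 human cells, read out by a cell viability assay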
# Description: SANGER: Inhibition of human SNU-C1 cell growth in a cell viability assay.
# NCI-H2141 = experiment: cells; type: functional, cell-based; conditions: Homo sapiens;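 also: growth inhibition of human NCI-H2141 cells, read out with a cell viability assay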
# Description: SANGER: Inhibition of human NCI-H2141 cell growth in a cell viability assay.
# SAS = experiment: cells; type: functional, cell-based; conditions: Homo sapiens;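 also: growth inhibition of SAS cells, read out with a cell viability assay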
# Description: SANGER: Inhibition of human SAS cell growth in a cell viability assay.
# GP5d = experiment: cells; type: functional, cell-based; conditions: Homo sapiens;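 also: growth inhibition of human GP5d cells, read out with a cell viability assay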
# Description: SANGER: Inhibition of human GP5d cell growth in a cell viability assay.
# J82 = experiment: cells; type: functional, cell-based; conditions: Homo sapiens;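 also: growth inhibition of J82 cells, read out with a cell viability assay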
# Description: SANGER: Inhibition of human J82 cell growth in a cell viability assay.
# NCI-H2052 = experiment: cells; type: functional, cell-based; conditions: Homo sapiens;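 also: growth inhibition of NCI-H2052 cells, read out with a cell viability assay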
# Description: SANGER: Inhibition of human NCI-H2052 cell growth in a cell viability assay.
# NCI-H2405 = experiment: cells; type: functional, cell-based; conditions: Homo sapiens;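 also: growth inhibition of the human cell line, read out with a cell viability assay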
# Description: SANGER: Inhibition of human NCI-H2405 cell growth in a cell viability assay.
# EGI-1 = experiment: cells; type: functional, cell-based; conditions: Homo sapiens;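 also: cell viability readout used to gauge growth inhibition of EGI-1 cells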
# Description: SANGER: Inhibition of human EGI-1 cell growth in a cell viability assay.
# KYSE-410 = experiment: cells; type: functional, cell-based; conditions: Homo sapiens;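 also: growth inhibition of KYSE-410 cells, measured through a cell viability readout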
# Description: SANGER: Inhibition of human KYSE-410 cell growth in a cell viability assay.
# SK-MM-2 = experiment: cells; type: functional, cell-based; conditions: Homo sapiens;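 also: growth inhibition of human SK-MM-2 cells, read out with a cell viability assay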
# Description: SANGER: Inhibition of human SK-MM-2 cell growth in a cell viability assay.
# PANC-08-13 = experiment: cells; type: functional, cell-based; conditions: Homo sapiens
# Description: SANGER: Inhibition of human PANC-08-13 cell growth in a cell viability assay.
# MKN-45 = experiment: cells; type: functional, cell-based; conditions: Homo sapiens;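 also: growth inhibition of human MKN-45 cells, measured with a cell viability assay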
# Description: SANGER: Inhibition of human MKN45 cell growth in a cell viability assay.
# MKN-1 = experiment: cells; type: functional, cell-based; conditions: Homo sapiens;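 also: growth inhibition of human MKN1 cells, read out by a cell viability measurement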
# Description: SANGER: Inhibition of human MKN1 cell growth in a cell viability assay.
# SNU-387 = experiment: cells; type: functional, cell-based; conditions: Homo sapiens
# Description: SANGER: Inhibition of human SNU-387 cell growth in a cell viability assay.
# GDM-1 = experiment: cells; type: functional, cell-based; conditions: Homo sapiens;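 also: cell viability readout used to measure growth inhibition of human GDM-1 cells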
# Description: SANGER: Inhibition of human GDM-1 cell growth in a cell viability assay.
# DoTc2-4510 = experiment: cells; type: functional, cell-based; conditions: Homo sapiens
# SW1573 = experiment: cells; type: functional, cell-based; conditions: Homo sapiens;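 also: growth inhibition of SW1573 cells, read out with a cell viability assay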
# Description: SANGER: Inhibition of human SW1573 cell growth in a cell viability assay.
# KYSE-510 = experiment: cells; type: functional, cell-based; conditions: Homo sapiens;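 also: cell viability readout used to measure how strongly growth of the cell line is suppressed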
# Description: SANGER: Inhibition of human KYSE-510 cell growth in a cell viability assay.
# UACC-893 = experiment: cells; type: functional, cell-based; conditions: Homo sapiens
# Description: SANGER: Inhibition of human UACC-893 cell growth in a cell viability assay.
# LB647-SCLC = experiment: cells; type: functional, cell-based; conditions: Homo sapiens;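 also: cell growth inhibition, read out by a viability assay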
# Description: SANGER: Inhibition of human LB647-SCLC cell growth in a cell viability assay.
# Capan-2 = experiment: cells; type: functional, cell-based; conditions: Homo sapiens;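 also: Capan-2 cell growth inhibition, read out with a viability assay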
# Description: SANGER: Inhibition of human Capan-2 cell growth in a cell viability assay.
# CAL-72 = experiment: cells; type: functional, cell-based; conditions: Homo sapiens;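 also: cell viability assay measuring inhibition of proliferation in the CAL-72 cell line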
# Description: SANGER: Inhibition of human CAL-72 cell growth in a cell viability assay.
# HT1197 = experiment: cells; type: functional, cell-based, HT-1197; conditions: Homo sapiens
# Description: SANGER: Inhibition of human HT-1197 cell growth in a cell viability assay.
# NCI-N87 = experiment: cells; type: functional, cell-based; conditions: Homo sapiens;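 also: growth inhibition of human NCI-N87 cells, read out with a cell viability assay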
# Description: SANGER: Inhibition of human NCI-N87 cell growth in a cell viability assay.
# MDA-MB-231 = experiment: cells; type: functional, cell-based; conditions: Homo sapiens
# Description: SANGER: Inhibition of human MDA-MB-231 cell growth in a cell viability assay.
# BL-41 = experiment: cells; type: functional, cell-based; conditions: Homo sapiens;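 also: growth inhibition of human BL-41 cells, read out with a cell viability assay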
# Description: SANGER: Inhibition of human BL-41 cell growth in a cell viability assay.
# LB996-RCC = experiment: cells; type: functional, cell-based; conditions: Homo sapiens
# Description: SANGER: Inhibition of human LB996-RCC cell growth in a cell viability assay.
# NCI-H1993 = experiment: cells; type: functional, cell-based; conditions: Homo sapiens;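 also: growth inhibition of the cancer cell line, assessed with a cell viability assay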
# Description: SANGER: Inhibition of human NCI-H1993 cell growth in a cell viability assay.
# P31-FUJ = experiment: cells; type: functional, cell-based; conditions: Homo sapiens;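 also: growth inhibition of P31-FUJ cells, read out with a viability assay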
# Description: SANGER: Inhibition of human P31-FUJ cell growth in a cell viability assay.
# SK-MES-1 = experiment: cells; type: functional, cell-based; conditions: Homo sapiens;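 also: growth inhibition of human SK-MES-1 cells, read out with a cell viability assay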
# Description: SANGER: Inhibition of human SK-MES-1 cell growth in a cell viability assay.
# T98G = experiment: cells; type: functional, cell-based; conditions: Homo sapiens;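 also: growth inhibition of T98G cells, read out by a cell viability assay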
# Description: SANGER: Inhibition of human T98G cell growth in a cell viability assay.
# MHH-ES-1 = experiment: cells; type: functional, cell-based; conditions: Homo sapiens
# Description: SANGER: Inhibition of human MHH-ES-1 cell growth in a cell viability assay.
# NCI-H1436 = experiment: cells; type: functional, cell-based; conditions: Homo sapiens;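 also: growth suppression of human NCI-H1436 cells, determined with a cell viability readout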
# Description: SANGER: Inhibition of human NCI-H1436 cell growth in a cell viability assay.
# HT-1080 = experiment: cells; type: functional, cell-based; conditions: Homo sapiens
# Description: SANGER: Inhibition of human HT-1080 cell growth in a cell viability assay.
# COLO-680N = experiment: cells; type: functional, cell-based; conditions: Homo sapiens;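 also: cell viability assay used to measure inhibition of COLO-680N cell growth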
# Description: SANGER: Inhibition of human COLO-680N cell growth in a cell viability assay.
# BFTC-905 = experiment: cells; type: functional, cell-based; conditions: Homo sapiens
# Description: SANGER: Inhibition of human BFTC-905 cell growth in a cell viability assay.
# BC1 cell line = experiment: SANGER: Inhibition of human BC-1 cell growth in a cell viability assay.; type: functional, cell-based
# MEL-JUSO = experiment: cells; type: functional, cell-based; conditions: Homo sapiens;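 also: growth inhibition of human MEL-JUSO cells, read out with a cell viability assay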
# Description: SANGER: Inhibition of human MEL-JUSO cell growth in a cell viability assay.
# OVCAR-3 = experiment: cells; type: functional, cell-based; conditions: Homo sapiens;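 also: growth inhibition of human OVCAR-3 cells, determined by a cell viability assay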
# Description: SANGER: Inhibition of human OVCAR-3 cell growth in a cell viability assay.
# Daudi = experiment: cells; type: functional, cell-based; conditions: Homo sapiens;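 also: growth inhibition of Daudi cells, read out by a viability assay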
# Description: SANGER: Inhibition of human Daudi cell growth in a cell viability assay.
# SIG-M5 = experiment: cells; type: functional, cell-based; conditions: Homo sapiens;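 also: cell viability assay read-out, measuring how strongly growth of cultured human SIG-M5 cells is inhibited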
# Description: SANGER: Inhibition of human SIG-M5 cell growth in a cell viability assay.
# NCI-H889 = experiment: cells; type: functional, cell-based; conditions: Homo sapiens;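 also: cell growth inhibition of the cell line, read out with a viability assay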
# Description: SANGER: Inhibition of human NCI-H889 cell growth in a cell viability assay.
# DOK = experiment: cells; type: functional, cell-based; conditions: Homo sapiens;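 also: cell viability assay read-out, values reflect inhibition of cell growth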
# Description: SANGER: Inhibition of human DOK cell growth in a cell viability assay.
# NCI-H1693 = experiment: cells; type: functional, cell-based; conditions: Homo sapiens;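 also: growth inhibition of the human cell line, read out with a cell viability assay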
# Description: SANGER: Inhibition of human NCI-H1693 cell growth in a cell viability assay.
# NCI-H1651 = experiment: cells; type: functional, cell-based; conditions: Homo sapiens;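 also: Read-out is a cell viability assay, with IC50 expressing inhibition of NCI-H1651 cell growth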
# Description: SANGER: Inhibition of human NCI-H1651 cell growth in a cell viability assay.
# G-402 = experiment: cells; type: functional, cell-based; conditions: Homo sapiens
# Description: SANGER: Inhibition of human G-402 cell growth in a cell viability assay.
# COR-L279 = experiment: SANGER: Inhibition of human COR-L279 cell growth in a cell viability assay.; type: functional, cell-based
# BXPC-3 = experiment: cells; type: functional, cell-based; conditions: Homo sapiens;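 also: growth inhibition of human BxPC-3 cells, read out by a cell viability assay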
# Description: SANGER: Inhibition of human BxPC-3 cell growth in a cell viability assay.
# GAMG = experiment: cells; type: functional, cell-based; conditions: Homo sapiens;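 also: cell growth inhibition measured by a viability assay in the GAMG human cell line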
# Description: SANGER: Inhibition of human GAMG cell growth in a cell viability assay.
# OAW-28 = experiment: cells; type: functional, cell-based; conditions: Homo sapiens;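 also: growth inhibition of OAW-28 cells, read out with a cell viability assay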
# Description: SANGER: Inhibition of human OAW-28 cell growth in a cell viability assay.
# A-431 = experiment: cells; type: functional, cell-based; conditions: Homo sapiens;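 also: growth inhibition of A-431 cells, determined with a cell viability read-out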
# Description: SANGER: Inhibition of human A431 cell growth in a cell viability assay.
# SK-OV-3 = experiment: cells; type: functional, cell-based; conditions: Homo sapiens;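 also: growth inhibition of SK-OV-3 human cells, read out with a cell viability assay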
# Description: SANGER: Inhibition of human SK-OV-3 cell growth in a cell viability assay.
# M059J = experiment: cells; type: functional, cell-based; conditions: Homo sapiens;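 also: growth inhibition of M059J cells, read out with a cell viability assay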
# Description: SANGER: Inhibition of human M059J cell growth in a cell viability assay.
# NCI-H661 = experiment: cells; type: functional, cell-based; conditions: Homo sapiens;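 also: cell viability assay read-out, IC50 being the concentration that inhibits growth of the cells by half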
# Description: SANGER: Inhibition of human NCI-H661 cell growth in a cell viability assay.
structure (smiles),measurement,setting,value
N#C/C(=C1/Nc2ccccc2S1)c1ccnc(NCCc2cccnc2)n1,IC50,RPMI 8402,> 8 µM
same,IC50,LC-1F,> 8 µM
same,IC50,MeWo,> 8 µM
same,IC50,COLO-678,> 8 µM
same,IC50,A2780,> 8 µM
same,IC50,TE-15,2.22 µM
same,IC50,RVH-421,> 8 µM
same,IC50,JEG-3,> 8 µM
same,IC50,SiHa,> 8 µM
same,IC50,BC-3,7.46 µM
same,IC50,SNU-C1,> 8 µM
same,IC50,NCI-H2141,> 8 µM
same,IC50,SAS,> 8 µM
same,IC50,GP5d,7.52 µM
same,IC50,J82,4.34 µM
same,IC50,NCI-H2052,> 8 µM
same,IC50,NCI-H2405,5.97 µM
same,IC50,EGI-1,> 8 µM
same,IC50,KYSE-410,> 8 µM
same,IC50,SK-MM-2,> 8 µM
same,IC50,PANC-08-13,3.63 µM
same,IC50,MKN-45,> 8 µM
same,IC50,MKN-1,2.9 µM
same,IC50,SNU-387,3.8 µM
same,IC50,GDM-1,> 8 µM
same,IC50,DoTc2-4510,2.08 µM
same,IC50,SW1573,> 8 µM
same,IC50,KYSE-510,> 8 µM
same,IC50,UACC-893,> 8 µM
same,IC50,LB647-SCLC,> 8 µM
same,IC50,Capan-2,6.67 µM
same,IC50,CAL-72,> 8 µM
same,IC50,HT1197,> 8 µM
same,IC50,NCI-N87,> 8 µM
same,IC50,MDA-MB-231,> 8 µM
same,IC50,BL-41,7.64 µM
same,IC50,LB996-RCC,2.86 µM
same,IC50,NCI-H1993,> 8 µM
same,IC50,P31-FUJ,> 8 µM
same,IC50,SK-MES-1,3.44 µM
same,IC50,T98G,> 8 µM
same,IC50,MHH-ES-1,> 8 µM
same,IC50,NCI-H1436,> 8 µM
same,IC50,HT-1080,> 8 µM
same,IC50,COLO-680N,> 8 µM
same,IC50,BFTC-905,3.37 µM
same,IC50,BC1 cell line,5.38 µM
same,IC50,MEL-JUSO,3.65 µM
same,IC50,OVCAR-3,> 8 µM
same,IC50,Daudi,6.54 µM
same,IC50,SIG-M5,> 8 µM
same,IC50,NCI-H889,> 8 µM
same,IC50,DOK,> 8 µM
same,IC50,NCI-H1693,> 8 µM
same,IC50,NCI-H1651,> 8 µM
same,IC50,G-402,> 8 µM
same,IC50,COR-L279,> 8 µM
same,IC50,BXPC-3,1.86 µM
same,IC50,GAMG,> 8 µM
same,IC50,OAW-28,> 8 µM
same,IC50,A-431,> 8 µM
same,IC50,SK-OV-3,> 8 µM
same,IC50,M059J,> 8 µM
same,IC50,NCI-H661,> 8 µM
C/C(O)=C(\C#N)C(=O)Nc1cc(Br)ccc1Br,IC50,RPMI 8402,> 16 µM
same,IC50,LC-1F,> 16 µM
same,IC50,MeWo,> 16 µM
same,IC50,COLO-678,> 16 µM
same,IC50,A2780,> 16 µM
same,IC50,TE-15,> 16 µM
same,IC50,RVH-421,> 16 µM
same,IC50,JEG-3,> 16 µM
same,IC50,SiHa,> 16 µM
same,IC50,BC-3,> 16 µM
same,IC50,SNU-C1,> 16 µM
same,IC50,NCI-H2141,> 16 µM
same,IC50,SAS,> 16 µM
same,IC50,GP5d,> 16 µM
same,IC50,J82,> 16 µM
same,IC50,NCI-H2052,> 16 µM
same,IC50,NCI-H2405,> 16 µM
same,IC50,EGI-1,> 16 µM
same,IC50,KYSE-410,> 16 µM
same,IC50,SK-MM-2,> 16 µM
same,IC50,PANC-08-13,> 16 µM
same,IC50,MKN-45,> 16 µM
same,IC50,MKN-1,> 16 µM
same,IC50,SNU-387,> 16 µM
same,IC50,GDM-1,> 16 µM
same,IC50,DoTc2-4510,> 16 µM
same,IC50,SW1573,> 16 µM
same,IC50,KYSE-510,> 16 µM
same,IC50,UACC-893,> 16 µM
same,IC50,LB647-SCLC,> 16 µM
same,IC50,Capan-2,> 16 µM
same,IC50,CAL-72,> 16 µM
same,IC50,HT1197,> 16 µM
same,IC50,NCI-N87,> 16 µM
same,IC50,MDA-MB-231,> 16 µM
same,IC50,BL-41,> 16 µM
same,IC50,LB996-RCC,> 16 µM
same,IC50,NCI-H1993,> 16 µM
same,IC50,P31-FUJ,> 16 µM
same,IC50,SK-MES-1,> 16 µM
same,IC50,T98G,> 16 µM
same,IC50,MHH-ES-1,> 16 µM
same,IC50,NCI-H1436,> 16 µM
same,IC50,HT-1080,> 16 µM
same,IC50,COLO-680N,> 16 µM
same,IC50,BFTC-905,> 16 µM
same,IC50,BC1 cell line,> 16 µM
same,IC50,MEL-JUSO,> 16 µM
same,IC50,OVCAR-3,> 16 µM
same,IC50,Daudi,> 16 µM
same,IC50,SIG-M5,> 16 µM
same,IC50,NCI-H889,> 16 µM
same,IC50,DOK,> 16 µM
same,IC50,NCI-H1693,> 16 µM
same,IC50,NCI-H1651,> 16 µM
same,IC50,G-402,> 16 µM
same,IC50,COR-L279,> 16 µM
same,IC50,BXPC-3,> 16 µM
same,IC50,GAMG,> 16 µM
same,IC50,OAW-28,> 16 µM
same,IC50,A-431,> 16 µM
same,IC50,SK-OV-3,> 16 µM
same,IC50,M059J,> 16 µM
same,IC50,NCI-H661,> 16 µM
